Data on eleven compounds can be found in patent US20230151024A1, “STING AGONISTIC COMPOUND” (ONO PHARMACEUTICAL CO., LTD., priority 2020, published 2023).

A short description of series [1]: Conversion of a prodrug to an active body thereof in mouse plasma. Type of series: in vitro ADME. Conditions: 1 μmol/L, 37° C. for 60 minutes, conversion to the compound in Example 3. How it is done: (§1) The solutions of the example compounds in Table 5 below (50 μmol/L, 50% acetonitrile with 5% DMSO) were added to plasma (245 μL), respectively, such that the final concentrations thereof become 1 μmol/L. After keeping them at 37° C. for 60 minutes, 40 μL of the reaction solutions were taken therefrom, and added to 200 μL of acetonitrile/ethanol (7:3) containing Candesartan (internal standard).
(§2) The concentration of the compound prepared in Example 3 in the plasma resulting from the above reaction was analyzed by LC-MS/MS according to the following method.
(§3) Prominence UFLCXR (Shimadzu Corporation), API5000 (AB Sciex)
(§4) The whole amount was transferred to a filter plate for protein removal and filtered by suction, and the filtrate thereof was diluted 2-fold with water. [LC column] Shim-pack XR-ODSII 2.0 mm ID x 75 mm (Shimadzu Corporation)
(§5) Column temperature: 40° C. Mobile phase: A: 0.2% formic acid in 5 mM ammonium acetate solution; and
(§6) Electrospray, positive mode, multiple reaction monitoring;
(§7) Compound prepared in Example 3: m/z353.0→m/z311.2, DP: 80, CE: 35; and Candesartan (internal standard): m/z309.1→m/z163.0, DP: 71, CE: 21.
(§8) A regression formula was calculated from the peak area ratio of the real sample and the standard sample for the calibration curve in the same matrix (peak area of the compound in Example 3/peak area of Candesartan), and the peak area ratio of the real sample was substituted into the regression formula to calculate the quantitative value. 60 minutes later, the concentration of the compound in Example 3 in the sample was compared, and the conversion rate (%) thereof was calculated using the following formula:
(§9) Conversion rate (%)=Concentration of the compound in Example 3 in the sample after 60 minutes (μmol/L)×100

Series [2] can be described thus: Conversion of a prodrug to an active body thereof in human plasma. Type of series: in vitro ADME. The conditions noted are these: 1 μmol/L, 37° C. for 60 minutes, conversion to the compound in Example 3. The protocol: as §1, §2, §3, §4, §5, §6, §7, §8, §9

Take `CC(=O)c1cc(-c2ncc(-c3cnn(COC(=O)N(C)c4ncccc4COP(=O)(O)O)c3)c3onc(N)c23)c(F)cc1N` [Example 12(1), (4-(5-(5-acetyl-4-amino-2-fluorophenyl)-3-aminoisoxazolo[4,5-c]pyridin-7-yl)-1H-pyrazol-1-yl)methyl methyl(3-((phosphonooxy)methyl)pyridin-2-yl)carbamate]: the “Plasma conversion rate Mouse” value in series [1] was “+ (the conversion rate of each example compound in the table to the compound in Example 3 is less than 25%)”. Also, the “Plasma conversion rate Human” value in series [2] is listed as “+ +”.
For the compound `CC(=O)c1cc(-c2ncc(-c3cnn(COC(=O)N4CCC(N5CCCCC5)CC4)c3)c3onc(N)c23)c(F)cc1N` [Example 12, (4-(4-(5-acetyl-4-amino-2-fluorophenyl)-3-aminoisoxazolo[4,5-c]pyridin-7-yl)-1H-pyrazol-1-yl)methyl [1,4′-bipiperidine]-1′-carboxylate], the “Plasma conversion rate Mouse” value in series [1] is recorded as “+ (the conversion rate of each example compound in the table to the compound in Example 3 is less than 25%)”. Further, the “Plasma conversion rate Human” value in series [2] is listed as “+ (the conversion rate of each example compound in the table to the compound in Example 3 is less than 25%)”.
In the case of `COC(=O)n1cc(-c2cnc(-c3cc(C(C)=O)c(N)cc3F)c3c(N)noc23)cn1` [Example 12(10), methyl 4-(4-(5-acetyl-4-amino-2-fluorophenyl)-3-aminoisoxazolo[4,5-c]pyridin-7-yl)-1H-pyrazole-1-carboxylate], in series [1], the “Plasma conversion rate Mouse” value was “+ + +”. For the same compound, the “Plasma conversion rate Human” value in series [2] is recorded as “+ + +”.
Consider `CC(=O)c1cc(-c2ncc(-c3cnn(COC(=O)OCCN4CCOCC4)c3)c3onc(N)c23)c(F)cc1N.Cl` [Example 12(4), (4-(4-(5-acetyl-4-amino-2-fluorophenyl)-3-aminoisoxazolo[4,5-c]pyridin-7-yl)-1H-pyrazol-1-yl)methyl (2-morpholinoethyl)carbonate hydrochloride], for which the “Plasma conversion rate Mouse” value in series [1] is on record as “+ + +”. For the same compound, the “Plasma conversion rate Human” value in series [2] was “+ + +”.
Regarding `CC(=O)c1cc(-c2ncc(-c3cnn(COP(=O)(O)O)c3)c3onc(N)c23)c(F)cc1N` [Example 10(1), (4-(4-(5-acetyl-4-amino-2-fluorophenyl)-3-aminoisoxazolo[4,5-c]pyridin-7-yl)-1H-pyrazol-1-yl)methyl dihydrogen phosphate], the “Plasma conversion rate Mouse” value in series [1] was “+ + +”. Moreover, the “Plasma conversion rate Human” value in series [2] is listed as “+ + +”.
Consider `CC(=O)c1cc(-c2ncc(-c3cnn(COC(=O)OC[C@H]4OC(O)[C@H](N)[C@@H](O)[C@@H]4O)c3)c3onc(N)c23)c(F)cc1N.Cl` (stereo partly drawn) [Example 12(6), (4-(4-(5-acetyl-4-amino-2-fluorophenyl)-3-aminoisoxazolo[4,5-c]pyridin-7-yl)-1H-pyrazol-1-yl)methyl (((2R,3S,4R,5R)-5-amino-3,4,6-trihydroxytetrahydro-2H-pyran-2-yl)methyl) carbonate hydrochloride], for which the “Plasma conversion rate Mouse” value in series [1] is given as “+ + +”. The “Plasma conversion rate Human” value in series [2] is listed as “+ + +”.
Regarding `CNCC(=O)OCc1cccnc1N(C)C(=O)OC(C)n1cc(-c2cnc(-c3cc(C(C)=O)c(N)cc3F)c3c(N)noc23)cn1` (stereo not shown) [Example 12(2), (2-(((1-(4-(4-(5-acetyl-4-amino-2-fluorophenyl)-3-aminoisoxazolo[4,5-c]pyridin-7-yl)-1H-pyrazol-1-yl)ethoxy)carbonyl)(methyl)amino)pyridin-3-yl)methyl methylglycinate], the “Plasma conversion rate Mouse” value in series [1] is given as “+ + +”. In series [2], the “Plasma conversion rate Human” value is on record as “+ + +”.
`CC(=O)c1cc(-c2ncc(-c3cnn(COC(=O)OC[C@H]4OC(O)[C@H](O)[C@@H](O)[C@@H]4O)c3)c3onc(N)c23)c(F)cc1N` (stereo partly drawn) [Example 12(5), (4-(4-(5-acetyl-4-amino-2-fluorophenyl)-3-aminoisoxazolo[4,5-c]pyridin-7-yl)-1H-pyrazol-1-yl)methyl (((2R,3S,4S,5R)-3,4,5,6-tetrahydroxytetrahydro-2H-pyran-2-yl)methyl) carbonate]: the “Plasma conversion rate Mouse” value in series [1] is “+ + +”. Also, the “Plasma conversion rate Human” value in series [2] is listed as “+ + +”.
In the case of `CC(=O)c1cc(-c2ncc(-c3cnn(C(=O)NCC(=O)O)c3)c3onc(N)c23)c(F)cc1N` [Example 12(9), (4-(4-(5-acetyl-4-amino-2-fluorophenyl)-3-aminoisoxazolo[4,5-c]pyridin-7-yl)-1H-pyrazole-1-carbonyl)glycine], the “Plasma conversion rate Mouse” value in series [1] is “+ (the conversion rate of each example compound in the table to the compound in Example 3 is less than 25%)”. The “Plasma conversion rate Human” value in series [2] is on record as “+ (the conversion rate of each example compound in the table to the compound in Example 3 is less than 25%)”.
Take `CC(=O)c1cc(-c2ncc(-c3cnn(COP(=O)(O)OCOC(=O)OC(C)C)c3)c3onc(N)c23)c(F)cc1N` [Example 12(11), ((((4-(4-(5-acetyl-4-amino-2-fluorophenyl)-3-aminoisoxazolo[4,5-c]pyridin-7-yl)-1H-pyrazol-1-yl)methoxy)(hydroxy)phosphoryl)oxy)methyl isopropyl carbonate]: the “Plasma conversion rate Mouse” value in series [1] was “+ (the conversion rate of each example compound in the table to the compound in Example 3 is less than 25%)”. The “Plasma conversion rate Human” value in series [2] is on record as “+ (the conversion rate of each example compound in the table to the compound in Example 3 is less than 25%)”.
For the compound `CNCC(=O)OCc1cccnc1N(C)C(=O)OCn1cc(-c2cnc(-c3cc(C(C)=O)c(N)cc3F)c3c(N)noc23)cn1.Cl` [Example 12(3), 2-((2-((((4-(4-(5-acetyl-4-amino-2-fluorophenyl)-3-aminoisoxazolo[4,5-c]pyridin-7-yl)-1H-pyrazol-1-yl)methoxy)carbonyl)(methyl)amino)pyridin-3-yl)methoxy)-N-methyl-2-oxoethane-1-ammonium chloride], the “Plasma conversion rate Mouse” value in series [1] is recorded as “+ + +”. The “Plasma conversion rate Human” value in series [2] is on record as “+ + +”.
